From US20250092031A1, “RIPK3 INHIBITORS AND METHODS OF USE” (Momentum Therapeutics, Inc., priority 2023, published 2025)

Experiments:
Murine L929 cells = assay: Necroptosis inhibition assay in L929 cells (mTNFα + zVAD, Sytox Green); type: cell-based; conditions: Mus musculus, 10 ng/ml mTNFα and 20 μM zVAD, 6 hours, Sytox Green fluorescence
Method: (§1) Murine L929 cells (ATCC-CCL-1) were seeded at 10,000 cells/well in a 96-well plate. Cells were treated 48 hours after seeding with 10 ng/ml mTNFα (R&D Systems) and 20 μM zVAD (ChemShuttle) in the presence of different concentrations of compounds ranging from […] to 0.01 μM. Cells treated with 0.1% DMSO or cells treated with TNFα+zVAD were used as control and vehicle respectively.
Assay plates containing cells were incubated for 6 hours at 37° C. and 5% CO2. Necroptosis was assessed using Sytox Green Nucleic Acid Stain (Invitrogen). After incubation, 100 μL of Sytox dye at 2 μM (2×) diluted in HBSS 1× was added in each well and incubated for 15 min at room temperature. Fluorescence (500ex/530em) was recorded using the Cytation 5 microplate reader (Biotek).
(§2) Percentage of necroptosis inhibition was calculated as the percent compared to control and vehicle conditions which correspond to 100% and 0% respectively. The half-maximum necroptosis inhibition (IC50) levels were calculated using GraphPad Prism software and are shown in Table 3 (NT represents compound not tested).

Human HT-29 cells = assay: Necroptosis inhibition assay in HT-29 cells (hTNFα + zVAD + SMAC mimetic, Sytox Green/Hoechst); type: cell-based; conditions: 10 ng/ml hTNFα, 20 μM zVAD and 100 nM SMAC mimetic, 6 hours, Sytox/Hoechst positive cells, read-out: HT29 necroptosis inhibition IC50
Method: as §1, with “Human HT-29” for “Murine L929”, “(ATCC-HTB-38)” for “(ATCC-CCL-1)”, “hTNFα” for “mTNFα”, “Systems),” for “Systems) and”, “(ChemShuttle) and 100 nM SMAC mimetic (MedChem Express)” for “(ChemShuttle)”, “TNFα+zVAD+SMAC mimetic” for “TNFα+zVAD”
Assay plates containing cells were incubated for 6 hours at 37° C. and 5% CO2. Necroptosis was assessed using Sytox Green Nucleic Acid Stain (Invitrogen) and Hoechst staining. After incubation, 100 μL of Sytox dye at 2 μM (2×) diluted in HBSS 1× was added to each well. At the same time, Hoechst stain is added to a final concentration of 10 μM and incubated for 15 min at room temperature. Images were taken for Sytox and Hoechst using the Cytation 5 microplate reader with DAPI and GFP filter cubes (Biotek). Sytox and Hoechst positive cells were counted with CellProfiler software.
as §2

SMILES | IC50 (Murine L929 cells) [µM] | IC50 (Human HT-29 cells) [µM]
NC1CN(C(=O)c2ccc(-c3ccc4c(Nc5ccc6scnc6c5)ccnc4c3)c(F)c2)C1 [Compound 310, (3-aminoazetidin-1-yl)(4-(4-(benzo[d]thiazol-5-ylamino)quinolin-7-yl)-3-fluorophenyl)methanone] | 0.663 | 0.294
O=C(c1ccc(-c2ccc3c(Nc4ccc5scnc5c4)ccnc3c2)c(F)c1)N1C[C@H]2CNC[C@H]2C1 [Compound 307, (4-(4-(benzo[d]thiazol-5-ylamino)quinolin-7-yl)-3-fluorophenyl)((3aR,6aS)-hexahydropyrrolo[3,4-c]pyrrol-2(1H)-yl)methanone] | 0.774 | 0.271
Fc1cc(CN2CC3(CNC3)C2)ccc1-c1ccc2c(Nc3ccc4scnc4c3)ccnc2c1 [Compound 323, N-(7-(4-((2,6-diazaspiro[3.3]heptan-2-yl)methyl)-2-fluorophenyl)quinolin-4-yl)benzo[d]thiazol-5-amine] | 0.454 | 0.296
CS(=O)(=O)N1CC2(CN(C(=O)c3ccc(-c4ccc5nccc(Nc6ccc7scnc7c6)c5c4)c(F)c3)C2)C1 [Compound 316, (4-(4-(benzo[d]thiazol-5-ylamino)quinolin-6-yl)-3-fluorophenyl)(6-(methylsulfonyl)-2,6-diazaspiro[3.3]heptan-2-yl)methanone] | 1.58 | 0.269
O=C(c1ccc(-c2ccc3c(Nc4ccc5scnc5c4)ccnc3c2)cc1F)N1CC2CNCC2C1 (stereo not shown) [Compound 303, (4-(4-(benzo[d]thiazol-5-ylamino)quinolin-7-yl)-2-fluorophenyl)(hexahydropyrrolo[3,4-c]pyrrol-2(1H)-yl)methanone] | 0.977 | 0.69
Fc1cc(OC2CC3(CNC3)C2)ccc1-c1ccc2nccc(Nc3ccc4scnc4c3)c2c1 [Compound 311, N-(6-(4-(2-azaspiro[3.3]heptan-6-yloxy)-2-fluorophenyl)quinolin-4-yl)benzo[d]thiazol-5-amine] | 1.03 | 0.732
Fc1cc(CN2CC3CNCC3C2)ccc1-c1ccc2c(Nc3ccc4scnc4c3)ccnc2c1 (stereo not shown) [Compound 300, N-(7-(2-fluoro-4-((hexahydropyrrolo[3,4-c]pyrrol-2(1H)-yl)methyl)phenyl)quinolin-4-yl)benzo[d]thiazol-5-amine] | 0.461 | 0.721
Cc1cc(-c2ccc3nccc(Nc4ccc5scnc5c4)c3c2)c(F)cc1C(=O)N1CCNCC1 [Compound 296, (4-(4-(benzo[d]thiazol-5-ylamino)quinolin-6-yl)-5-fluoro-2-methylphenyl)(piperazin-1-yl)methanone] | 1.29 | 0.0169
O=C1CN(C(=O)c2ccc(-c3ccc4nccc(Nc5ccc6scnc6c5)c4c3)c(F)c2)CCN1 [Compound 275, 4-(4-(4-(benzo[d]thiazol-5-ylamino)quinolin-6-yl)-3-fluorobenzoyl)piperazin-2-one] | 3.82 | 0.689
O=C(c1ccc(-c2ccc3nccc(Nc4ccc5scnc5c4)c3c2)cn1)N1CCOCC1 [Compound 326, (5-(4-(benzo[d]thiazol-5-ylamino)quinolin-6-yl)pyridin-2-yl)(morpholino)methanone] | 1.79 | 0.305
c1cc(Nc2ccc3scnc3c2)c2ccc(-c3ccc(C4CCNCC4)cc3)cc2n1 [Compound 253, N-(7-(4-(piperidin-4-yl)phenyl)quinolin-4-yl)benzo[d]thiazol-5-amine] | 0.271 | 0.755
O=C(c1ccc(-c2cc3c(Nc4ccc5scnc5c4)ccnc3cc2F)c(F)c1)N1CCOCC1 [Compound 322, (4-(4-(benzo[d]thiazol-5-ylamino)-7-fluoroquinolin-6-yl)-3-fluorophenyl)(morpholino)methanone] | 0.175 | 0.111
O=C(c1ccc(-c2ccc3c(Nc4ccc5scnc5c4)ccnc3c2)c(F)c1)N1CC2(CCOCC2)C1 [Compound 252, (4-(4-(benzo[d]thiazol-5-ylamino)quinolin-7-yl)-3-fluorophenyl)(7-oxa-2-azaspiro[3.5]nonan-2-yl)methanone] | 0.26 | 0.244
O=C(c1ccc(-c2ccc3c(Nc4ccc5scnc5c4)ccnc3c2)c(Cl)c1)N1CC2(CNC2)C1 [Compound 312, (4-(4-(benzo[d]thiazol-5-ylamino)quinolin-7-yl)-3-chlorophenyl)(2,6-diazaspiro[3.3]heptan-2-yl)methanone] | 0.668 | 1.56
O=C(CO)N1CCC(c2ccc(-c3ccc4nccc(Nc5ccc6scnc6c5)c4c3)cc2)CC1 [Compound 239, 1-(4-(4-(4-(benzo[d]thiazol-5-ylamino)quinolin-6-yl)phenyl)piperidin-1-yl)-2-hydroxyethan-1-one] | < 1 | 
Fc1cc(CN2CCNCC2)ccc1-c1ccc2nccc(Nc3ccc4occc4c3)c2c1 [Compound 386, N-(benzofuran-5-yl)-6-(2-fluoro-4-(piperazin-1-ylmethyl)phenyl)quinolin-4-amine] | > 10 | 
CC(C)(C)OC(=O)N1C2CCC1CN(Cc1ccc(-c3ccc4nccc(Nc5ccc6scnc6c5)c4c3)c(F)c1)C2 [Compound 57, tert-butyl 3-(4-(4-(benzo[d]thiazol-5-ylamino)quinolin-6-yl)-3-fluorobenzyl)-3,8-diazabicyclo[3.2.1]octane-8-carboxylate] | > 10 | 
CN1CCC(c2ccc(Nc3ccnc4cc(-c5ccccc5F)ccc34)cc2F)CC1 [Compound 5, N-(3-fluoro-4-(1-methylpiperidin-4-yl)phenyl)-7-(2-fluorophenyl)quinolin-4-amine] | > 10 | 
CN(C)C(=O)c1ccc(-c2ccc3nccc(Nc4ccc5scnc5c4)c3c2)c(F)c1 [Compound 245, 4-(4-(benzo[d]thiazol-5-ylamino)quinolin-6-yl)-3-fluoro-N,N-dimethylbenzamide] | < 1 | 
N#Cc1cc(-c2ccc3nccc(Nc4ccc5scnc5c4)c3c2)ccc1N1CCCC1 [Compound 39, 5-(4-(benzo[d]thiazol-5-ylamino)quinolin-6-yl)-2-(pyrrolidin-1-yl)benzonitrile] | > 10 | 
Cn1ncc2cc(Nc3ccnc4ccc(-c5ccc(CN6CCNCC6)cc5F)cc34)ccc21 [Compound 388, 6-(2-fluoro-4-(piperazin-1-ylmethyl)phenyl)-N-(1-methyl-1H-indazol-5-yl)quinolin-4-amine] | > 10 | 
CN1CCN(Cc2ccc(-c3ccc4nccc(Nc5ccc(Cl)c(F)c5)c4c3)c(F)c2)CC1 [Compound 33, N-(4-chloro-3-fluorophenyl)-6-(2-fluoro-4-((4-methylpiperazin-1-yl)methyl)phenyl)quinolin-4-amine] | < 10 | 
O=C1CN(Cc2ccc(-c3ccc4nccc(Nc5ccc6oncc6c5)c4c3)c(F)c2)CCN1 [Compound 289, 4-(4-(4-(benzo[d]isoxazol-5-ylamino)quinolin-6-yl)-3-fluorobenzyl)piperazin-2-one] | > 10 | 
CC(C)(C)OC(=O)N1C2CCC1CN(Cc1ccc(-c3ccc4c(Nc5ccc6scnc6c5)ccnc4c3)c(F)c1)C2 [Compound 58, tert-butyl 3-(4-(4-(benzo[d]thiazol-5-ylamino)quinolin-7-yl)-3-fluorobenzyl)-3,8-diazabicyclo[3.2.1]octane-8-carboxylate] | < 10 | 
O=C(c1ccc(-c2ccc3nccc(Nc4ccc5scnc5c4)c3c2)c(F)c1)N1CCCC1 [Compound 241, (4-(4-(benzo[d]thiazol-5-ylamino)quinolin-6-yl)-3-fluorophenyl)(pyrrolidin-1-yl)methanone] | 0.388 | 
CN1CCC(c2ccc(Nc3ccnc4cc(-c5ccccn5)ccc34)cc2F)CC1 [Compound 6, N-(3-fluoro-4-(1-methylpiperidin-4-yl)phenyl)-7-(pyridin-2-yl)quinolin-4-amine] | > 10 | 
Nc1nc2cc(Nc3ccnc4ccc(-c5ccc(CN6CCCC6)cc5F)cc34)ccc2s1 [Compound 26, N5-(6-(2-fluoro-4-(pyrrolidin-1-ylmethyl)phenyl)quinolin-4-yl)benzo[d]thiazole-2,5-diamine] | > 10 | 
Fc1cc(CN2CCNCC2)ccc1-c1ccc2nccc(Nc3ccc4[nH]ncc4c3)c2c1 [Compound 387, 6-(2-fluoro-4-(piperazin-1-ylmethyl)phenyl)-N-(1H-indazol-5-yl)quinolin-4-amine] | > 10 | 
COc1ccc(-c2ccc3c(Nc4ccc(C5CCN(C)CC5)cn4)ccnc3c2)cc1 [Compound 7, 7-(4-methoxyphenyl)-N-(5-(1-methylpiperidin-4-yl)pyridin-2-yl)quinolin-4-amine] | > 10 | 
